Test [1] has as its system SW480 colorectal cancer cells. Briefly: MTT cell viability assay. Particulars: read-out: IC50 values (μM), cell viability. (In general: Tetrazolium dyes change colour on reduction, which living cells bring about.)
Description: (§2) Twenty-five μl of 3-(4,5-Dimethylthiazolyl)-2,5-diphenyltetrazolium bromide (MTT, Sigma) was added to each sample and incubated for 3.5 hours. After this, 100 μl of N, N-dimethylformamide (Sigma) solubilization solution was added to each well. […] Half-Maximal inhibitory concentrations (IC50) were determined using Sigma Plot 9.0 software (Systat Software Inc., San Jose, CA).
Test [2] concerns HCT-116 colorectal cancer cells. Briefly: MTT cell viability assay. Particulars: read-out: IC50 values (μM), cell viability.
Description: as §2
For test [3], the system named is U87 glioblastoma cells. Briefly: MTT cell viability assay. Particulars: read-out: IC50 values (μM), cell viability.
Description: as §2
The test system of test [4] is U251 glioblastoma cells. The test can be described thus: MTT cell viability assay. Particulars: read-out: IC50 values (μM), cell viability.
Description: as §2
In test [5] the test system is U266 multiple myeloma cells. The test can be described thus: MTT cell viability assay. Particulars: read-out: IC50 values (μM), cell viability.
Description: as §2
Test [6] concerns ARH77 multiple myeloma cells. The test can be described thus: MTT cell viability assay. Particulars: read-out: IC50 values (μM), cell viability.
Description: as §2
In test [7] the test system is SNU-449 liver cancer cells. Briefly: MTT cell viability assay. Particulars: read-out: IC50 values (μM), cell viability.
Description: as §2
In test [8] the test system is SNU-398 liver cancer cells. Briefly: MTT cell viability assay. Particulars: read-out: IC50 values (μM), cell viability.
Description: as §2
In test [9] the test system is Hep3B liver cancer cells. Briefly: MTT cell viability assay. Particulars: read-out: IC50 values (μM), cell viability.
Description: as §2
For test [10], the system named is SNU-387 liver cancer cells. Briefly: MTT cell viability assay. Particulars: read-out: IC50 values (μM), cell viability.
Description: as §2
Test [11] deals with STAT3 phosphorylation induced by IL-6 in MDA-MB-453 breast cancer cells. Briefly: IL-6 induction of STAT3 phosphorylation. It counts as cell-based, human. Particulars: MDA-MB-453, pretreatment 20 μM, IL-6 50 ng/mL 30 min. How it is done:
After stimulation with IL-6 (50 ng/mL, Sigma) or IFN-γ (50 ng/mL, Sigma) for 30 min, the cells were harvested and analyzed by western blot.

Test [12] concerns Cleaved Caspase-3 in HCT-116 cells. The test can be described thus: Western blot, HCT-116 cells. Particulars: HCT116, positive controls. It counts as cell-based, human. The procedure:
(§1) Membranes were analyzed with enhanced chemiluminescence Plus reagents (GE Healthcare) and scanned with a Storm PhosphorImager (Amersham Pharmacia Biotech Inc.).
In general terms: Immunoblotting shows a protein as a band on a membrane.

Test [13] relates to P-STAT3(Y705) in HCT-116 cells. Briefly: Western blot, HCT-116 cells. Particulars: HCT116, positive controls. It counts as cell-based, human. How it is done:
as §1

In test [14] the test system is Cleaved Caspase-3 in U266 cells. Briefly: Western blot, U266 cells. It counts as cell-based, human. Particulars: U266, positive controls. How it is done:
as §1

Test [15] deals with P-STAT3(Y705) in U266 cells. Briefly: Western blot, U266 cells. It counts as cell-based, human. Particulars: U266, positive controls. The procedure: as §1

Read-outs that look alike come from different tables or passages of the source.

For `N#C/C(=C/c1ccc(O)c(O)c1)C(=O)NCc1ccccc1` [AG490], the IC50 was 86.8 µM in [1] (SW480 (C), MTT, 72 hours); 50.5 µM in test [2] (HCT-116 (C), MTT, 72 hours); more than 100 µM in test [3] (U87 (G), MTT, 72 hours); 50.7 µM in [4] (U251 (G), MTT, 72 hours); 9.5 µM in test [5] (U266 (MM), MTT, 72 hours); 28.2 µM in [6] (ARH77 (MM), MTT, 72 hours). Also, the IC50 in [7] (SNU-449 (L), MTT, 72 hours) was more than 100 µM; in test [8] (SNU-398 (L), MTT, 72 hours), 24.3 µM; in test [9] (Hep3B (L), MTT, 72 hours), more than 100 µM; in test [10] (SNU-387 (L), MTT, 72 hours) it was more than 100 µM.
In the case of `COc1cc(/C=C/C(=O)CC(=O)/C=C/c2ccc(O)c(OC)c2)ccc1O` [Curcumin], the “inhibition of the induction of STAT3 phosphorylation by IL-6” value in test [11] is listed as “not”. In addition, the IC50 was determined as 10.3 µM in test [1] (Homo sapiens, SW480, 72 h); 10.9 µM in test [2] (Homo sapiens, HCT-116, 72 h); 6.91 µM in test [3] (Homo sapiens, 72 h); 7.1 µM in test [4] (Homo sapiens, U-251, 72 h); 4.76 µM in test [5] (Homo sapiens, U-266, 72 h); 10.1 µM in test [6] (Homo sapiens, ARH-77, 72 h). For the same compound, the IC50 came to 9.88 µM in [7] (Homo sapiens, SNU-449, 72 h); 5.37 µM in test [8] (Homo sapiens, SNU-398, 72 h); 68.1 µM in test [9] (Homo sapiens, Hep3B, 72 h); 25.5 µM in test [10] (Homo sapiens, SNU-387, 72 h).
For the compound `Cc1ccc(S(=O)(=O)OCC(=O)Nc2ccc(C(=O)O)c(O)c2)cc1` [S3I-201], the IC50 in [1] (SW480 (C), MTT, 72 hours) was more than 100 µM; in test [2] (HCT-116 (C), MTT, 72 hours), more than 100 µM; in [3] (U87 (G), MTT, 72 hours) it was 55.1 µM; in test [4] (U251 (G), MTT, 72 hours), 97.3 µM; in test [5] (U266 (MM), MTT, 72 hours), 8.87 µM; in [6] (ARH77 (MM), MTT, 72 hours) it was 35.2 µM. In addition, the IC50 was more than 100 µM in test [7] (SNU-449 (L), MTT, 72 hours); 16.2 µM in test [8] (SNU-398 (L), MTT, 72 hours); more than 100 µM in [9] (Hep3B (L), MTT, 72 hours); more than 100 µM in test [10] (SNU-387 (L), MTT, 72 hours).
`O=[N+]([O-])c1ccc2c(c1)S(=O)(=O)C=C2` [Stattic]: the “apoptosis indicated by cleavage of caspase-3 (in words)” value in test [12] and in test [14] was “induce apoptosis” throughout. The “effect on STAT3 phosphorylation (in words)” value in [13] and in test [15] was “inhibit STAT3 phosphorylation” throughout. The IC50 in [1] (SW480 (C), MTT, 72 hours) is 0.43 µM; in test [2] (HCT-116 (C), MTT, 72 hours), 0.96 µM; in [3] (U87 (G), MTT, 72 hours), 0.73 µM; in test [4] (U251 (G), MTT, 72 hours), 0.84 µM; in test [5] (U266 (MM), MTT, 72 hours) it was 0.99 µM; in test [6] (ARH77 (MM), MTT, 72 hours) it was 2.57 µM. For the same compound, the IC50 in [7] (SNU-449 (L), MTT, 72 hours) came out at 2.5 µM; in [8] (SNU-398 (L), MTT, 72 hours) it was 3.23 µM; in [9] (Hep3B (L), MTT, 72 hours), 17.8 µM; in [10] (SNU-387 (L), MTT, 72 hours) it was 4.3 µM.
Turning to `C[C@H](NC(=O)/C(C#N)=C/c1cccc(Br)n1)c1ccccc1` [WP1066], the “apoptosis indicated by cleavage of caspase-3 (in words)” value in test [12] and in test [14] was “induce apoptosis” in each case. Besides, the “effect on STAT3 phosphorylation (in words)” value in test [13] and in [15] was “inhibit STAT3 phosphorylation” throughout. Also, the IC50 came out at 1.98 µM in [1] (Homo sapiens, SW480, 72 h); 1.51 µM in [2] (Homo sapiens, HCT-116, 72 h); 5.78 µM in test [3] (Homo sapiens, 72 h); 5.04 µM in test [4] (Homo sapiens, U-251, 72 h); 1.38 µM in test [5] (Homo sapiens, U-266, 72 h); 3.43 µM in test [6] (Homo sapiens, ARH-77, 72 h). For the same compound, the half-inhibitory concentration (IC50) in test [7] (Homo sapiens, SNU-449, 72 h) amounted to 3.85 µM; in test [8] (Homo sapiens, SNU-398, 72 h), 4.88 µM; in test [9] (Homo sapiens, Hep3B, 72 h), 10.2 µM; in test [10] (Homo sapiens, SNU-387, 72 h), 5.17 µM.

In general, IC50 refers to the point on the concentration scale where inhibition reaches its midpoint.

Values taken from publication PMC2936338 (Molecular Cancer, 2010).
